Data set [1] relates to HEK293T cells. Description: Voltage sensitivity in HEK cells, whole-cell patch clamp with fluorescence imaging. The data set is classed as cell-based. The following applies: for ΔF/F (%) voltage sensitivity: per 100 mV, HEK cells, whole-cell voltage clamp, 200 nM VF. Here is the method: Functional imaging of VF dyes was performed using a 20× objective paired with image capture from the EMCCD camera at a sampling rate of 0.5 kHz. VF dyes were excited using the 488 nm LED with an intensity of 2.5 W/cm^2. For initial voltage characterization emission was collected with the QUAD filter (430/32, 508/14, 586/30, 708/98 nm) after passing through a quadruple dichroic mirror (432/38, 509/22, 586/40, 654 nm LP).
Recordings were obtained with an Axopatch 200B amplifier (Molecular Devices) at room temperature. The signals were digitized with Digidata 1332A, sampled at 50 kHz and recorded with pCLAMP 10 software (Molecular Devices) on a PC. Fast capacitance was compensated in the on-cell configuration. For all electrophysiology experiments, recordings were only pursued if series resistance in voltage clamp was less than 30 MΩ. For whole-cell, voltage clamp recordings in HEK 293T cells, cells were held at −60 mV and 100 ms hyper- and depolarizing steps applied from −100 to +100 mV in 20 mV increments. For whole-cell, following membrane rupture, resting membrane potential was assessed and recorded at I=0 and monitored during the data acquisition.
Analysis of voltage sensitivity in HEK cells was performed using custom Matlab routines. Briefly, a region of interest (ROI) was selected automatically based on fluorescence intensity and applied as a mask to all image frames. Fluorescence intensity values were calculated at known baseline and voltage step epochs.
To determine the voltage sensitivity of each of the dyes, whole-cell patch clamp electrophysiology was performed on HEK293T cells loaded with 200 nM VF (FIG. 8a-d). Depolarization of the cell membrane in the presence of VF dye results in a large increase of fluorescence, while hyperpolarization results in lower levels of fluorescence (FIG. 8c-d; FIG. 9). As an illustrative comparison, msVF2.2(OMe). […] Cl, at 48% per 100 mV. The disulfoVF2.2(OMe).
A general note: Patch clamp records ionic current or voltage across a cell membrane.

Data set [2] relates to HEK293T cells. The data set is described as follows: Membrane localization after bath loading, fluorescence imaging. The data set is classed as cell-based. Conditions: HEK cells. The source says:
A total of 9 new dyes were made: 6 new dsVF dyes and 3 new msVF dyes. Both msVF and dsVF dyes display similar excitation and emission profiles to previously reported msVF dyes (Table 1, FIG. 7A-I), and all localized to the plasma membrane when applied to HEK293T cells via bath loading (FIG. 8a-b).

For a further data set, the system named is hPSC-derived mDA neurons. The data set is described as follows: Voltage imaging of hPSC-derived midbrain dopaminergic (mDA) neurons. It is filed as cell-based, human. The following applies: mDA neurons stained with 500 nM dye. Here is the method:
mDA neurons were derived from H1 human embryonic stem cells (hESCs) using medium conditions as described in Kriks et al., Nature, 480, 547, 2011). On Day 25 of differentiation, cells were harvested from the culture platform and pipetted to generate small 50-100 μm clusters, and seeded on 12 mm glass coverslips coated with 20 μg/ml Laminin (ThermoFischer Scientific). Cells were subsequently matured for 10 days before voltage sensitive imaging.
Functional imaging of mDA cells was performed using a 20× objective paired with image capture from the ORCA-Flash4.0 camera (Hamamatsu) at a sampling rate of 100 Hz. VoltageFluor dye was excited using the 488 nm LED with an intensity of 2.5 W/cm^2. Light was collected with the QUAD filter (430/32, 508/14, 586/30, 708/98 nm) after passing through a quadruple dichroic mirror (432/38, 509/22, 586/40, 654 nm LP). For image analysis, a custom Matlab routine was employed. Briefly, a TIFF stack was imported into Matlab and the intensity values a user-designated block of pixels was extracted as an array. The intensity over time for each block was then baseline corrected by fitting to a 2nd degree polynomial. […]

The test system of a further data set is rat hippocampal neurons. Description: Staining and voltage imaging of cultured rat hippocampal neurons. It is filed as cell-based. From the text:
Cl, it was expected that disulfoVF2.2(OMe). Cl would be well-suited to observing membrane potential changes in neurons. Cultured rat hippocampal neurons bathed in disulfoVF2.2(OMe). […] Cl was also used to image neuronal activity in midbrain dopaminergic (mDA) neurons derived from cultured human pluripotent stem cells (hPSCs) in culture (FIG. 11b) using differentiation conditions adapted from previously established protocols. mDA neurons stained with dsVF2.2(OMe). […] Functional analysis of human- or patient-derived differentiated neurons in a simple, non-invasive manner enabled by dsVF2.2(OMe). Cl can provide an important diagnostic tool alongside more conventional methods in ascertaining proper differentiation as well as in investigating human disease phenotypes.

Data set [3] is described as follows: Solubility of VoltageFluor dyes and sulfofluoresceins in water. Conditions: ds vs ms VF dye; distilled water, 0.1% DMSO, 20 degrees Celsius, UV-Vis. The data set is classed as physicochemical. As for the experimental part:
Suspensions of 5 milligrams each of solid mono- and disulfo-dichlorofluoresceins in 5 mL of distilled water were created. Over the course of three days, 5 milligrams of solid material was added at a time, ensuring that no visible particulates were present in the solution prior to addition. At the end of the experiment, the suspension was filtered through filter paper and then through a 0.22-μm polytetrafluoroethylene filter into a scintillation vial. 10 μL of this filtrate was used as a stock solution to determine the concentration of fluorescein present via UV-Vis spectrophotometry and the remainder was lyophilized and the amount of solid resulting was measured using an analytical microbalance. For VF dyes (VF2.1.Cl and VF2.2(OMe).Cl, both ms and ds versions), saturated solutions in distilled water were prepared via dilution from a 100 μM stock in DMSO for a resulting solution containing 0.1% DMSO. The solutions were allowed to sit overnight at 20 degrees Celsius and then filtered through 0.22-μm filters. The resulting filtrates were used as stock solutions to determine the amount of VF present via UV-Vis spectrophotometry.

Data set [4] is described as follows: Spectroscopic studies (absorbance, emission, quantum yield). The following applies: phosphate-buffered saline, pH 7.4 with 0.1% Triton X-100. The data set is classed as physicochemical. Here is the method:
Stock solutions of VF dyes were prepared in DMSO (1.0-10 mM) and diluted with PBS (100 mM Na2HPO4, pH 7.4, 0.1% Triton-X). UV-Vis absorbance and fluorescence spectra were recorded using a Shimadzu 2501 Spectrophotometer (Shimadzu) and a Quantamaster Master 4 L-format scanning spectrofluorometer (Photon Technologies International). The fluorometer is equipped with an LPS-220B 75-W xenon lamp and power supply, A-1010B lamp housing with integrated igniter, switchable 814 photon-counting/analog photomultiplier detection unit, and MD5020 motor driver. Samples were measured in 1-cm path length quartz cuvettes (Starna Cells).

The subject of another data set is HEK cells. Description: Determination of photostability in HEK cells. It is filed as cell-based. The following applies: compared to msVF2.2(OMe).Cl; 1 μM, 488 nm LED. As for the experimental part:
HEK cells were incubated separately with ms- and ds-VF2.1.Cl and VF2.2(OMe). Cl at 1 μM in HBSS at 37 degrees Celsius for 15 minutes. Data were acquired with a W-Plan-Apo 63×/1.0 objective (Zeiss) and the ORCA-Flash4.0 camera (Hamamatsu). Images were exposed for 10 milliseconds each across 50 seconds with a constant illumination of the 488 nm LED (153 W/cm^2). The excitation light was collected with the QUAD filter (430/32, 508/14, 586/30, 708/98 nm) after passing through a quadruple dichroic mirror (432/38, 509/22, 586/40, 654 nm LP). The fluorescence curves were background subtracted and then normalized to the fluorescence intensity at t=0 and averaged across five cells of each dye.

For `CCN(CC)c1ccc(/C=C/c2ccc(/C=C/c3cc(S(=O)(=O)O)c(-c4c5cc(Cl)c(=O)cc-5oc5cc(O)c(Cl)cc45)c(S(=O)(=O)O)c3)cc2)c(OC)c1` [dsVF2.2(OMe).Cl], the “ΔF/F (%) voltage sensitivity” value with HEK293T cells [1] is reported as 63%; with HEK293T cells [1] (listed as disulfoVF2.2(OMe). Cl), 63%; with HEK293T cells [1] (listed as disulfoVF2.2(OMe).Cl) it was 63%; with HEK293T cells [1] (listed as dsVF2.2(OMe). Cl) it was “approximately 63%”. Besides, in the data set with HEK293T cells [1] (relative to corresponding msVF), the “Improvement (%) in voltage sensitivity” value is 19%. Besides, in the data set on HEK293T cells [2], the membrane localization result is listed as “clear membrane localization”. Besides, the “imaging of neuronal activity” value with hPSC-derived mDA neurons is recorded as “revealed distinct firing patterns”. Further, in the data set on rat hippocampal neurons (confocal microscopy, 500 nM), the “membrane staining of neurons” value was “bright membrane staining”. In the data set on rat hippocampal neurons (rat hippocampal neurons), the “detection of membrane potential changes” value was “can be used to detect membrane potential changes in rat hippocampal neurons”. Further, in data set [3], the “improvement of aqueous solubility by second sulfonate” value stood at 55%. In data set [4], the “Φf1 (fluorescence quantum yield)” value is recorded as 0.07. In data set [4], the λabs amounted to 520 nm. The λem in data set [4] was 540 nm. For the same compound, the photostability result in the data set with HEK cells is reported as “good photostability”.

The record behind these values is patent publication US10370351B2, “Photoinduced electron transfer voltage-sensitive compounds” (The Regents of the University of California, priority 2016, dated 2019).
